Measured values: ChEMBL document CHEMBL1201861, “Genomics of Drug Sensitity in Cancer screening data, Wellcome Trust Sanger Institute”

Experiments:
Assay in all cases: cells
Details in all cases: Homo sapiens
PFSK-1 = assay type: functional, cell-based;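 further: cell viability assay measuring how strongly compounds suppress growth of human PFSK-1 cells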
Description: SANGER: Inhibition of human PFSK-1 cell growth in a cell viability assay.

G-402 = assay type: functional, cell-based
Description: SANGER: Inhibition of human G-402 cell growth in a cell viability assay.

D-336MG = assay type: functional, cell-based
Description: SANGER: Inhibition of human D-336MG cell growth in a cell viability assay.

COLO-679 = assay type: functional, cell-based
Description: SANGER: Inhibition of human COLO-679 cell growth in a cell viability assay.

D-542MG = assay type: functional, cell-based
Description: SANGER: Inhibition of human D-542MG cell growth in a cell viability assay.

OE33 = assay type: functional, cell-based;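 further: growth inhibition of human OE33 cells, measured by a cell viability assay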
Description: SANGER: Inhibition of human OE33 cell growth in a cell viability assay.

SNU-449 = assay type: functional, cell-based
Description: SANGER: Inhibition of human SNU-449 cell growth in a cell viability assay.

SW1088 = assay type: functional, cell-based;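 further: growth inhibition of human SW1088 cells, read out by a cell viability assay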
Description: SANGER: Inhibition of human SW1088 cell growth in a cell viability assay.

NCI-H1703 = assay type: functional, cell-based;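 further: growth inhibition of NCI-H1703 cells, read out via a cell viability assay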
Description: SANGER: Inhibition of human NCI-H1703 cell growth in a cell viability assay.

COLO-680N = assay type: functional, cell-based;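 further: cell viability assay used to measure inhibition of COLO-680N cell growth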
Description: SANGER: Inhibition of human COLO-680N cell growth in a cell viability assay.

CAL-120 = assay type: functional, cell-based;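 further: cell growth inhibition, read out as cell viability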
Description: SANGER: Inhibition of human CAL-120 cell growth in a cell viability assay.

OVCAR-8 = assay type: functional, cell-based;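 further: growth inhibition of human OVCAR-8 cells, read out by a cell viability assay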
Description: SANGER: Inhibition of human OVCAR-8 cell growth in a cell viability assay.

Huh-7 = assay type: functional, cell-based;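 further: HuH-7 cell growth inhibition, read out with a cell viability assay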
Description: SANGER: Inhibition of human HuH-7 cell growth in a cell viability assay.

769-P = assay type: functional, cell-based
Description: SANGER: Inhibition of human 769-P cell growth in a cell viability assay.

A-427 = assay type: functional, cell-based;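 further: growth inhibition of human A-427 cells, read out by a cell viability assay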
Description: SANGER: Inhibition of human A427 cell growth in a cell viability assay.

SK-N-AS = assay type: functional, cell-based;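 further: growth inhibition of human SK-N-AS cells, measured with a cell viability assay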
Description: SANGER: Inhibition of human SK-N-AS cell growth in a cell viability assay.

KYSE-140 = assay type: functional, cell-based;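 further: cell viability assay measuring growth inhibition in human KYSE-140 cells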
Description: SANGER: Inhibition of human KYSE-140 cell growth in a cell viability assay.

TCC-SUP = assay type: functional, cell-based;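 further: growth inhibition of TCC-SUP cells, read out with a cell viability assay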
Description: SANGER: Inhibition of human TCCSUP cell growth in a cell viability assay.

NCI-H2087 = assay type: functional, cell-based;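 further: growth inhibition determined with a cell viability readout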
Description: SANGER: Inhibition of human NCI-H2087 cell growth in a cell viability assay.

LoVo = assay type: functional, cell-based;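 further: growth inhibition of human LoVo cells, read out with a cell viability assay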
Description: SANGER: Inhibition of human LoVo cell growth in a cell viability assay.

HCC1569 = assay type: functional, cell-based;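 further: growth inhibition of human HCC1569 cells, read out with a cell viability assay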
Description: SANGER: Inhibition of human HCC1569 cell growth in a cell viability assay.

NCI-H2452 = assay type: functional, cell-based;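 further: growth inhibition of NCI-H2452 cells, read out with a cell viability assay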
Description: SANGER: Inhibition of human NCI-H2452 cell growth in a cell viability assay.

SJRH30 = assay type: functional, cell-based;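 further: growth inhibition of human SJRH30 cells, read out with a cell viability assay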
Description: SANGER: Inhibition of human SJRH30 cell growth in a cell viability assay.

SW13 = assay type: functional, cell-based;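 further: IC50 is inhibition of SW13 cell growth, read out with a cell viability assay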
Description: SANGER: Inhibition of human SW13 cell growth in a cell viability assay.

BHY = assay type: functional, cell-based;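 further: cell growth inhibition read out by a viability assay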
Description: SANGER: Inhibition of human BHY cell growth in a cell viability assay.

MKN-1 = assay type: functional, cell-based;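 further: growth inhibition of human MKN1 cells, read out by a cell viability measurement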
Description: SANGER: Inhibition of human MKN1 cell growth in a cell viability assay.

KOSC-2 = assay type: functional, cell-based;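 further: growth inhibition of KOSC-2 cells, read out by a cell viability assay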
Description: SANGER: Inhibition of human KOSC-2 cell growth in a cell viability assay.

D-247MG = assay type: functional, cell-based
Description: SANGER: Inhibition of human D-247MG cell growth in a cell viability assay.

NCI-H2347 = assay type: functional, cell-based;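 further: growth inhibition of the cell line, read out with a cell viability assay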
Description: SANGER: Inhibition of human NCI-H2347 cell growth in a cell viability assay.

CAL-27 = assay type: functional, cell-based;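 further: Viability-based readout, IC50 reflecting inhibition of CAL-27 cell growth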
Description: SANGER: Inhibition of human CAL-27 cell growth in a cell viability assay.

CAKI-1 = assay type: functional, cell-based;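 further: growth inhibition of CAKI-1 cells, measured by a cell viability assay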
Description: SANGER: Inhibition of human CAKI-1 cell growth in a cell viability assay.

CAL-33 = assay type: functional, cell-based;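 further: growth inhibition of CAL-33 cells, read out with a cell viability assay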
Description: SANGER: Inhibition of human CAL-33 cell growth in a cell viability assay.

PANC-03-27 = assay type: functional, cell-based
Description: SANGER: Inhibition of human PANC-03-27 cell growth in a cell viability assay.

COLO-741 = assay type: functional, cell-based
Description: SANGER: Inhibition of human COLO-741 cell growth in a cell viability assay.

SW 1116 = assay type: functional, cell-based;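 further: growth inhibition of SW1116 cells, read out with a cell viability assay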
Description: SANGER: Inhibition of human SW1116 cell growth in a cell viability assay.

SN12C = assay type: functional, cell-based;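 further: growth inhibition of human SN12C cells, measured by a cell viability assay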
Description: SANGER: Inhibition of human SN12C cell growth in a cell viability assay.

UMUC3 = assay type: functional, cell-based;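 further: growth inhibition of human UM-UC-3 cells, read out with a cell viability assay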
Description: SANGER: Inhibition of human UM-UC-3 cell growth in a cell viability assay.

CAL-85-1 = assay type: functional, cell-based;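 further: growth inhibition of human CAL-85-1 cells, read out with a cell viability assay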
Description: SANGER: Inhibition of human CAL-85-1 cell growth in a cell viability assay.

NCI-H1693 = assay type: functional, cell-based;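 further: growth inhibition of the human cell line, read out with a cell viability assay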
Description: SANGER: Inhibition of human NCI-H1693 cell growth in a cell viability assay.

CAL-51 = assay type: functional, cell-based;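 further: human CAL-51 cell line, growth inhibition read out via a cell viability assay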
Description: SANGER: Inhibition of human CAL-51 cell growth in a cell viability assay.

Capan-2 = assay type: functional, cell-based;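 further: Capan-2 cell growth inhibition, read out with a viability assay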
Description: SANGER: Inhibition of human Capan-2 cell growth in a cell viability assay.

GP5d = assay type: functional, cell-based;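 further: growth inhibition of human GP5d cells, read out with a cell viability assay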
Description: SANGER: Inhibition of human GP5d cell growth in a cell viability assay.

HuCCT-1 = assay type: functional, cell-based, HuCCT1;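 further: growth inhibition of HuCCT-1 cells, read out by a cell viability assay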
Description: SANGER: Inhibition of human HuCCT1 cell growth in a cell viability assay.

D-392MG = assay type: functional, cell-based

Cn1cc(/C=C2\C(=O)Nc3cccnc32)c2ccccc21
IC50 (PFSK-1): > 2000 nM
IC50 (G-402): > 2000 nM
IC50 (D-336MG): > 2000 nM
IC50 (COLO-679): > 2000 nM
IC50 (D-542MG): > 2000 nM
IC50 (OE33): > 2000 nM
IC50 (SNU-449): > 2000 nM
IC50 (SW1088): > 2000 nM
IC50 (NCI-H1703): 299 nM
IC50 (COLO-680N): > 2000 nM
IC50 (CAL-120): > 2000 nM
IC50 (OVCAR-8): > 2000 nM
IC50 (Huh-7): > 2000 nM
IC50 (769-P): > 2000 nM
IC50 (A-427): > 2000 nM
IC50 (SK-N-AS): > 2000 nM
IC50 (KYSE-140): > 2000 nM
IC50 (TCC-SUP): > 2000 nM
IC50 (NCI-H2087): > 2000 nM
IC50 (LoVo): > 2000 nM
IC50 (HCC1569): > 2000 nM
IC50 (NCI-H2452): > 2000 nM
IC50 (SJRH30): > 2000 nM
IC50 (SW13): > 2000 nM
IC50 (BHY): > 2000 nM
IC50 (MKN-1): > 2000 nM
IC50 (KOSC-2): > 2000 nM
IC50 (D-247MG): > 2000 nM
IC50 (NCI-H2347): > 2000 nM
IC50 (CAL-27): > 2000 nM
IC50 (CAKI-1): > 2000 nM
IC50 (CAL-33): > 2000 nM
IC50 (PANC-03-27): > 2000 nM
IC50 (COLO-741): > 2000 nM
IC50 (SW 1116): > 2000 nM
IC50 (SN12C): > 2000 nM
IC50 (UMUC3): > 2000 nM
IC50 (CAL-85-1): > 2000 nM
IC50 (NCI-H1693): > 2000 nM
IC50 (CAL-51): > 2000 nM
IC50 (Capan-2): > 2000 nM
IC50 (GP5d): > 2000 nM
IC50 (HuCCT-1): > 2000 nM
IC50 (D-392MG): > 2000 nM

CC(=O)c1c(C)c2cnc(Nc3ccc(N4CCNCC4)cn3)nc2n(C2CCCC2)c1=O [PALBOCICLIB]
IC50 (PFSK-1): > 4000 nM
IC50 (G-402): > 4000 nM
IC50 (COLO-679): > 4000 nM
IC50 (OE33): > 4000 nM
IC50 (SNU-449): > 4000 nM
IC50 (SW1088): 3470 nM
IC50 (COLO-680N): > 4000 nM
IC50 (CAL-120): > 4000 nM
IC50 (OVCAR-8): > 4000 nM
IC50 (Huh-7): > 4000 nM
IC50 (769-P): > 4000 nM
IC50 (A-427): > 4000 nM
IC50 (SK-N-AS): 388 nM
IC50 (KYSE-140): > 4000 nM
IC50 (TCC-SUP): > 4000 nM
IC50 (NCI-H2087): > 4000 nM
IC50 (LoVo): > 4000 nM
IC50 (HCC1569): > 4000 nM
IC50 (NCI-H2452): > 4000 nM
IC50 (SJRH30): > 4000 nM
IC50 (BHY): 1470 nM
IC50 (KOSC-2): 467 nM
IC50 (D-247MG): > 4000 nM
IC50 (NCI-H2347): > 4000 nM
IC50 (CAL-27): 495 nM
IC50 (CAKI-1): > 4000 nM
IC50 (CAL-33): > 4000 nM
IC50 (PANC-03-27): > 4000 nM
IC50 (COLO-741): 1320 nM
IC50 (SW 1116): > 4000 nM
IC50 (SN12C): 1010 nM
IC50 (CAL-85-1): > 4000 nM
IC50 (NCI-H1693): > 4000 nM
IC50 (CAL-51): 1750 nM
IC50 (Capan-2): > 4000 nM
IC50 (GP5d): > 4000 nM
IC50 (HuCCT-1): > 4000 nM
IC50 (D-392MG): > 4000 nM

Cn1c(=O)n(-c2ccc(C(C)(C)C#N)cc2)c2c3cc(-c4cnc5ccccc5c4)ccc3ncc21 [DACTOLISIB]
IC50 (PFSK-1): 49.1 nM
IC50 (G-402): 22.2 nM
IC50 (COLO-679): 122 nM
IC50 (OE33): 189 nM
IC50 (SNU-449): 75.8 nM
IC50 (SW1088): 28.3 nM
IC50 (COLO-680N): 111 nM
IC50 (CAL-120): 34.7 nM
IC50 (OVCAR-8): 31.3 nM
IC50 (Huh-7): 18.4 nM
IC50 (769-P): 10.4 nM
IC50 (A-427): 183 nM
IC50 (SK-N-AS): 137 nM
IC50 (KYSE-140): 50.6 nM
IC50 (TCC-SUP): 64.5 nM
IC50 (NCI-H2087): 235 nM
IC50 (LoVo): 48.4 nM
IC50 (HCC1569): 276 nM
IC50 (NCI-H2452): 44.6 nM
IC50 (SJRH30): 144 nM
IC50 (SW13): 66.5 nM
IC50 (BHY): 42.7 nM
IC50 (MKN-1): 2.8 nM
IC50 (KOSC-2): 70 nM
IC50 (D-247MG): 135 nM
IC50 (NCI-H2347): 173 nM
IC50 (CAL-27): 217 nM
IC50 (CAKI-1): 36.4 nM
IC50 (CAL-33): 85.1 nM
IC50 (PANC-03-27): 76.3 nM
IC50 (COLO-741): 1500 nM
IC50 (SW 1116): > 2000 nM
IC50 (SN12C): 90.6 nM
IC50 (UMUC3): < 7.81 nM
IC50 (CAL-85-1): 92.5 nM
IC50 (NCI-H1693): 136 nM
IC50 (CAL-51): 23.9 nM
IC50 (Capan-2): > 2000 nM
IC50 (GP5d): 434 nM
IC50 (HuCCT-1): 90.8 nM
IC50 (D-392MG): 108 nM

C[C@]1(c2nc3c(C(N)=O)cccc3[nH]2)CCCN1 [VELIPARIB]
IC50 (PFSK-1): > 5000 nM
IC50 (G-402): > 5000 nM
IC50 (D-336MG): > 5000 nM
IC50 (COLO-679): > 5000 nM
IC50 (D-542MG): > 5000 nM
IC50 (OE33): > 5000 nM
IC50 (SNU-449): > 5000 nM
IC50 (SW1088): > 5000 nM
IC50 (NCI-H1703): > 5000 nM
IC50 (COLO-680N): > 5000 nM
IC50 (CAL-120): > 5000 nM
IC50 (OVCAR-8): > 5000 nM
IC50 (Huh-7): > 5000 nM
IC50 (769-P): > 5000 nM
IC50 (A-427): > 5000 nM
IC50 (SK-N-AS): > 5000 nM
IC50 (KYSE-140): > 5000 nM
IC50 (TCC-SUP): > 5000 nM
IC50 (NCI-H2087): > 5000 nM
IC50 (LoVo): > 5000 nM
IC50 (HCC1569): > 5000 nM
IC50 (NCI-H2452): > 5000 nM
IC50 (SW13): > 5000 nM
IC50 (BHY): > 5000 nM
IC50 (MKN-1): > 5000 nM
IC50 (KOSC-2): > 5000 nM
IC50 (D-247MG): > 5000 nM
IC50 (NCI-H2347): > 5000 nM
IC50 (CAL-27): > 5000 nM
IC50 (CAKI-1): > 5000 nM
IC50 (CAL-33): > 5000 nM
IC50 (PANC-03-27): > 5000 nM
IC50 (COLO-741): > 5000 nM
IC50 (SW 1116): > 5000 nM
IC50 (SN12C): > 5000 nM
IC50 (UMUC3): > 5000 nM
IC50 (CAL-85-1): > 5000 nM
IC50 (NCI-H1693): > 5000 nM
IC50 (CAL-51): > 5000 nM
IC50 (Capan-2): > 5000 nM
IC50 (GP5d): > 5000 nM
IC50 (HuCCT-1): > 5000 nM
IC50 (D-392MG): > 5000 nM
